Measurements as given in patent publication US9802928B2 (Merck Sharp & Dohme Corp., priority 2013, dated 2017).

Legend:
[1] = target: soluble human BACE1 catalytic domain (Homo sapiens (Human), UniProt P56817); assay: BACE1 HTRF FRET Assay; format: biochemical; conditions: Ki calculated from IC50 using the Cheng-Prusoff equation; QSY7-APPswe-Eu substrate, pH 5.0
Excerpt: Na^+-Acetate pH 5.0; 1% Brij-35; Glycerol; Dimethyl Sulfoxide (DMSO); Recombinant human soluble BACE1 catalytic domain (>95% pure); APP Swedish mutant peptide substrate (QSY7-APP^swe-Eu): QSY7-[…]-Europium-amide.
A homogeneous time-resolved FRET assay can be used to determine IC50 values for inhibitors of the soluble human BACE1 catalytic domain. This assay monitors the increase of 620 nm fluorescence that resulted from BACE1 cleavage of an APPswedish APP^swe mutant peptide FRET substrate (QSY7-[…]-Europium-amide). This substrate contains an N-terminal QSY7 moiety that serves as a quencher of the C-terminal Europium fluorophore (620 nm Em). In the absence of enzyme activity, 620 nm fluorescence is low in the assay and increased linearly over 3 hours in the presence of uninhibited BACE1 enzyme Inhibition of BACE1 cleavage of the QSY7-APP^swe-Eu substrate by inhibitors is manifested as a suppression of 620 nm fluorescence.
Varying concentrations of inhibitors at 3× the final desired concentration in a volume of 10 ul are preincubated with purified human BACE1 catalytic domain (3 nM in 10 μl) for 30 minutes at 30° C. in reaction buffer containing 20 mM Na-Acetate pH 5.0, 10% glycerol, 0.1% Brij-35 and 7.5% DSMO. Reactions are initiated by addition of 10 μl of 600 nM QSY7-APP^swe-Eu substrate (200 nM final) to give a final reaction volume of 30 μl in a 384 well Nunc HTRF plate. The reactions are incubated at 30° C. for 1.5 hours. The 620 nm fluorescence is then read on a Rubystar HTRF plate reader (BMG Labtechnologies) using a 50 millisecond delay followed by a 400 millisecond acquisition time window. Inhibitor IC50 values are derived from non-linear regression analysis of concentration response curves. Ki values are then calculated from IC50 values using the Cheng-Prusoff equation using a previously determined […] of 8 μM for the QSY7-APP^swe-Eu substrate at BACE1.

[2] = target: purified human autoBACE-2 (Homo sapiens (Human), UniProt Q9Y5Z0); assay: BACE-2 Assay (BACE-HTRF assay); format: biochemical; conditions: Ki calculated from IC50 using the Cheng-Prusoff equation; QSY7-EISEVNLDAEFC-Eu-amide substrate, pH 5.0; read-out: BACE2 Ki
purified human autoBACE-2, sequence (Q9Y5Z0 63-473 limits assumed): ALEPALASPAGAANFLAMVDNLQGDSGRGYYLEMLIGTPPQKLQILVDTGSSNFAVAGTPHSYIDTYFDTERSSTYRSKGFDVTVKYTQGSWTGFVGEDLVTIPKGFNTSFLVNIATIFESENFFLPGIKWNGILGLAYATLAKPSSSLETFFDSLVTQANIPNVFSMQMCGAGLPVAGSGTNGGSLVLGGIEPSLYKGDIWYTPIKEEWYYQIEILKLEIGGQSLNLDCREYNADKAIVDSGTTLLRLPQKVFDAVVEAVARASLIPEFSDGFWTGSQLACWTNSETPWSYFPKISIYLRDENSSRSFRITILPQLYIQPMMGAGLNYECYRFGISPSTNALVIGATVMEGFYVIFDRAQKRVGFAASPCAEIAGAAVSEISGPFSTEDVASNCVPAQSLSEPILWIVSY
Description: Inhibitor IC50s at purified human autoBACE-2 are determined in a time-resolved endpoint proteolysis assay that measures hydrolysis of the QSY7-EISEVNLDAEFC-Eu-amide FRET peptide substrate (BACE-HTRF assay). BACE-mediated hydrolysis of this peptide results in an increase in relative fluorescence (RFU) at 620 nm after excitation with 320 nm light. Inhibitor compounds, prepared at 3× the desired final concentration in 1×BACE assay buffer (20 mM sodium acetate pH 5.0, 10% glycerol, 0.1% Brij-35) supplemented with 7.5% DMSO are pre-incubated with an equal volume of autoBACE-2 enzyme diluted in 1×BACE assay buffer (final enzyme concentration 1 nM) in black 384-well NUNC plates for 30 minutes at 30° C. The assay is initiated by addition of an equal volume of the QSY7-EISEVNLDAEFC-Eu-amide substrate (200 nM final concentration, Km=8 μM […] for autoBACE-2) prepared in 1×BACE assay buffer supplemented with 7.5% DMSO and incubated for 90 minutes at 30° C. DMSO is present at 5% final concentration in the assay. Following laser excitation of sample wells at 320 nm, the fluorescence signal at 620 nm is collected for 400 ms following a 50 μs delay on a RUBYstar HTRF plate reader (BMG Labtechnologies). Raw RFU data is normalized to maximum (1.0 nM BACE/DMSO) and minimum (no enzyme/DMSO) RFU values. IC50s are determined by nonlinear regression analysis (sigmoidal dose response, variable slope) of percent inhibition data with minimum and maximum values set to 0 and 100 percent respectively. Similar IC50s are obtained when using raw RFU data. The Ki values are calculated from the IC50 using the Cheng-Prusoff equation.

soluble human BACE1 catalytic domain, sequence (P56817 75-416): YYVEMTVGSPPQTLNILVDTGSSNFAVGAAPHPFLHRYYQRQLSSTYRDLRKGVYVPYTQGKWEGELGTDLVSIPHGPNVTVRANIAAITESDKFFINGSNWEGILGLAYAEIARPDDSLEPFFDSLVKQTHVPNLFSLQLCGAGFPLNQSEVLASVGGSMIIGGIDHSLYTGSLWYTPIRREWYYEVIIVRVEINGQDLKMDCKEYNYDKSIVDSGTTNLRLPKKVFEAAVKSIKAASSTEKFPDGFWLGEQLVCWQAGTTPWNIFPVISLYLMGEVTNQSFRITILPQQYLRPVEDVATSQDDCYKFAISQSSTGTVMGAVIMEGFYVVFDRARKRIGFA

SMILES | Ki [1] | Ki [2]
COc1ccc(C(=O)Nc2ccc(F)c([C@@]3(C)NC(=N)N(C)S(=O)(=O)C34CC4)c2)nc1 [Example 1a, N-{4-fluoro-3-[(8R)-6-imino-5,8-dimethyl-4,4-dioxido-4-thia-5,7-diazaspiro[2.5]oct-8-yl]phenyl}-5-methoxypyridine-2-carboxamide] | 18 nM | 17 nM
CN1C(=N)N[C@](C)(c2cc(NC(=O)c3cn(C)nc3C(F)(F)F)ccc2F)C2(CC2)S1(=O)=O [Example 1b, N-{4-fluoro-3-[(8R)-6-imino-5,8-dimethyl-4,4-dioxido-4-thia-5,7-diazaspiro[2.5]oct-8-yl]phenyl}-1-methyl-3-(trifluoromethyl)-1H-pyrazole-4-carboxamide] | 4940 nM | 3250 nM
C#CCOc1ccc(C(=O)Nc2ccc(F)c([C@@]3(C)NC(=N)N(C)S(=O)(=O)C34CC4)c2)nc1 [Example 1c, N-{4-fluoro-3-[(8R)-6-imino-5,8-dimethyl-4,4-dioxido-4-thia-5,7-diazaspiro[2.5]oct-8-yl]phenyl}-5-(prop-2-yn-1-yloxy)pyridine-2-carboxamide] | 6 nM | 95 nM
CN1C(=N)N[C@](C)(c2cc(NC(=O)c3cnsn3)ccc2F)C2(CC2)S1(=O)=O [Example 1d, N-{4-fluoro-3-[(8R)-6-imino-5,8-dimethyl-4,4-dioxido-4-thia-5,7-diazaspiro[2.5]oct-8-yl]phenyl}-1,2,5-thiadiazole-3-carboxamide] | 25 nM | 15 nM
COc1cnc(C(=O)Nc2ccc(F)c([C@@]3(C)NC(=N)N(C)S(=O)(=O)C34CC4)c2)cn1 [Example 1e] | 20 nM | 56 nM
CN1C(=N)N[C@](C)(c2cc(NC(=O)c3ccc(C(F)(F)F)cn3)ccc2F)C2(CC2)S1(=O)=O [Example 1f, N-{4-fluoro-3-[(8R)-6-imino-5,8-dimethyl-4,4-dioxido-4-thia-5,7-diazaspiro[2.5]oct-8-yl]phenyl}-5-(trifluoromethyl)pyridine-2-carboxamide] | 8 nM | 55 nM
CN1C(=N)N[C@](C)(c2cc(NC(=O)c3ccc(C#N)cn3)ccc2F)C2(CC2)S1(=O)=O [Example 1g, 5-cyano-N-{4-fluoro-3-[(8R)-6-imino-5,8-dimethyl-4,4-dioxido-4-thia-5,7-diazaspiro[2.5]oct-8-yl]phenyl}pyridine-2-carboxamide] | 3 nM | 17 nM
Cc1nc(C(=O)Nc2ccc(F)c([C@@]3(C)NC(=N)N(C)S(=O)(=O)C34CC4)c2)no1 [Example 1h, N-{4-fluoro-3-[(8R)-6-imino-5,8-dimethyl-4,4-dioxido-4-thia-5,7-diazaspiro[2.5]oct-8-yl]phenyl}-5-methyl-1,2,4-oxadiazole-3-carboxamide] | 31 nM | 8 nM
CN1C(=N)N[C@](C)(c2cc(NC(=O)c3ncc(C(F)(F)F)cn3)ccc2F)C2(CC2)S1(=O)=O [Example 1i, N-{4-fluoro-3-[(8R)-6-imino-5,8-dimethyl-4,4-dioxido-4-thia-5,7-diazaspiro[2.5]oct-8-yl]phenyl}-5-(trifluoromethyl)pyrimidine-2-carboxamide] | 47 nM | 106 nM
COc1cnc(C(=O)Nc2ccc(F)c([C@@]3(C)NC(=N)N(C)S(=O)(=O)C34CC4)c2)c(C)c1 [Example 1j] | 22 nM | 10 nM
Cc1cc(C#N)cnc1C(=O)Nc1ccc(F)c([C@@]2(C)NC(=N)N(C)S(=O)(=O)C23CC3)c1 [Example 1k, 5-cyano-N-{4-fluoro-3-[(8R)-6-imino-5,8-dimethyl-4,4-dioxido-4-thia-5,7-diazaspiro[2.5]oct-8-yl]phenyl}-3-methylpyridine-2-carboxamide] | 2 nM | 5 nM
CN1C(=N)N[C@](C)(c2cc(NC(=O)c3ccn(C(F)F)n3)ccc2F)C2(CC2)S1(=O)=O [Example 1l, 1-(difluoromethyl)-N-{4-fluoro-3-[(8R)-6-imino-5,8-dimethyl-4,4-dioxido-4-thia-5,7-diazaspiro[2.5]oct-8-yl]phenyl}-1H-pyrazole-3-carboxamide] | 5 nM | 2 nM
CN1C(=N)N[C@](C)(c2cc(NC(=O)c3cn4ccc(C#N)cc4n3)ccc2F)C2(CC2)S1(=O)=O [Example 1m, 7-cyano-N-{4-fluoro-3-[(8R)-6-imino-5,8-dimethyl-4,4-dioxido-4-thia-5,7-diazaspiro[2.5]oct-8-yl]phenyl}imidazo[1,2-a]pyridine-2-carboxamide] | 5500 nM | 1640 nM
Cc1cc(C(=O)Nc2ccc(F)c([C@@]3(C)NC(=N)N(C)S(=O)(=O)C34CC4)c2)no1 [Example 1n, N-{4-fluoro-3-[(8R)-6-imino-5,8-dimethyl-4,4-dioxido-4-thia-5,7-diazaspiro[2.5]oct-8-yl]phenyl}-5-methylisoxazole-3-carboxamide] | 620 nM | 220 nM
CN1C(=N)N[C@](C)(c2cc(NC(=O)c3ncc(Cl)cc3F)ccc2F)C2(CC2)S1(=O)=O [Example 1o, 5-chloro-3-fluoro-N-{4-fluoro-3-[(8R)-6-imino-5,8-dimethyl-4,4-dioxido-4-thia-5,7-diazaspiro[2.5]oct-8-yl]phenyl}pyridine-2-carboxamide] | 6 nM | 3 nM
CN1C(=N)N[C@](C)(c2cc(NC(=O)c3cnc(C(F)(F)F)cn3)ccc2F)C2(CC2)S1(=O)=O [Example 1p, 5-N-{4-fluoro-3-[(8R)-6-imino-5,8-dimethyl-4,4-dioxido-4-thia-5,7-diazaspiro[2.5]oct-8-yl]phenyl}-5-(trifluoromethyl)pyrazine-2-carboxamide] | 58 nM | 346 nM
COc1cnc(C(=O)Nc2ccc(F)c([C@@]3(C)NC(=N)N(C)S(=O)(=O)C34CC4)c2)c(C)n1 [Example 1q, N-{4-fluoro-3-[(8R)-6-imino-5,8-dimethyl-4,4-dioxido-4-thia-5,7-diazaspiro[2.5]oct-8-yl]phenyl}-5-methoxy-3-methylpyrazine-2-carboxamide] | 38 nM | 41 nM
CN1C(=N)N[C@](C)(c2cc(NC(=O)c3ccc(F)cn3)ccc2F)C2(CC2)S1(=O)=O [Example 1r, 5-fluoro-N-{4-fluoro-3-[(8R)-6-imino-5,8-dimethyl-4,4-dioxido-4-thia-5,7-diazaspiro[2.5]oct-8-yl]phenyl}pyridine-2-carboxamide] | 16 nM | 8 nM
CN1C(=N)N[C@](C)(c2cc(NC(=O)c3ccc(OC(F)F)cn3)ccc2F)C2(CC2)S1(=O)=O [Example 1s, 5-(difluoromethoxy)-N-{4-fluoro-3-[(8R)-6-imino-5,8-dimethyl-4,4-dioxido-4-thia-5,7-diazaspiro[2.5]oct-8-yl]phenyl}pyridine-2-carboxamide] | 8 nM | 46 nM
CN1C(=N)N[C@](C)(c2cc(NC(=O)c3cnc(OCCF)cn3)ccc2F)C2(CC2)S1(=O)=O [Example 1t, 5-(2-fluoroethoxy)-N-{4-fluoro-3-[(8R)-6-imino-5,8-dimethyl-4,4-dioxido-4-thia-5,7-diazaspiro[2.5]oct-8-yl]phenyl}pyrazine-2-carboxamide] | 42 nM | 285 nM
Cc1nc(C(=O)Nc2ccc(F)c([C@@]3(C)NC(=N)N(C)S(=O)(=O)C34CC4)c2)c(C)o1 [Example 1u, N-{4-fluoro-3-[(8R)-6-imino-5,8-dimethyl-4,4-dioxido-4-thia-5,7-diazaspiro[2.5]oct-8-yl]phenyl}-2,5-dimethyl-1,3-oxazole-4-carboxamide] | 25 nM | 8 nM
